This is an account of results in a melting point compilation (Tetko et al.; mined from patent text by program, amines drawn as free bases though some values may be those of a salt).

Take `Cc1ccccc1-c1cccc(Nc2ccccc2)c1C#N`: the melting point – broadly, the temperature, or range, at which the solid turns liquid – lay in the range of 125 to 126 °C.

For the compound `O=C(O)C1=CC(CF)(CF)Oc2ccc(C(F)(F)C(F)(F)C(F)(F)F)cc21`, the melting point was in the range of 162 to 163 °C.

On to `CC=CCNc1cc(C(=O)O)cc(S(N)(=O)=O)c1Oc1cccc(NC(C)=O)c1`, for which the melting point lay in the range of 198 to 202 °C.

The compound `Cc1nc2cnccc2n1-c1ccc(C=Cc2cccc(OCc3nc4cc(F)ccc4s3)c2)cc1` displayed a melting point of 178 to 181 °C.

For the compound `CCCc1c(O[C@H]2CCC[C@H](Oc3ccc(C(=O)CCC(=O)O)cc3)C2)ccc(C(C)=O)c1O` (relative stereo), the melting point is 90 to 94 °C.

As to `CCCc1nc2ccc(NS(C)(=O)=O)cc2n1Cc1ccccc1Cl`, the melting point is 191 to 193 °C.

In turn, `CC(=O)OC1CSC(Oc2ccc3ncsc3c2)C(OC(C)=O)C1OC(C)=O` (centres undefined) showed a melting point of 166 °C.

`CCC(CC)(CC(=O)c1ccc(OC)c(OC)c1)C(=O)O`: the melting point fell in the range of 106 to 109 °C.

`O=C(O)C(Cc1ccccc1)NC(=O)N1CCc2cc(S(=O)(=O)N3CCN(c4cccc(Cl)c4)CC3)ccc21` (centres undefined) displayed a melting point of 134 to 135 °C.

Compound `CC(C)C[C@H](NC(=O)C=Cc1ccccc1)C(=O)N[C@@H](Cc1ccccc1)C(=O)CSCc1ccco1` came in with a melting point of 141 to 143 °C.

`O=CN1CCN=C1CC(c1ccccc1)c1ccccc1` gave a melting point of 105 to 107 °C.

As to `CC(CCc1cc2cccnc2n(-c2cccc(N(C)C)c2)c1=O)c1ccncc1` (centres undefined), the melting point is 148 to 154 °C.

Compound `COCCOc1cc2ncnc(NC3=CC(=O)C(Oc4ccc(-n5ccnc5)cc4)=CC3=O)c2cc1OC` came in with a melting point of 124 to 132 °C.

Compound `O=S(Cc1ccccn1)c1ccc(F)cc1` (centres undefined) yielded a melting point of 92 to 94 °C.

Take `CC(C)(C)OC(=O)NC(CC(=O)NCCC(=O)OCc1ccccc1)C(=O)NCCC(=O)OCc1ccccc1` (centres undefined): the melting point fell in the range of 109 to 110 °C.

Consider `CCC(=O)NN=C(c1ccc(Cl)cc1)c1ccc(OS(C)(=O)=O)cc1`, for which the melting point lay within 128 to 144 °C.

In turn, `CCN1c2ncc(CCc3ccccc3)cc2C(=O)Nc2c(C)ccnc21` came in with a melting point of 174 to 175 °C.

Turning to `CC(C)n1nc(-c2sc(NC(=O)CNCCO)nc2-c2ccccc2)ccc1=O`, the melting point was 142 to 144 °C.

As to `CC(=O)CCCCCCCCc1ccc(O)c(O)c1`, the melting point fell in the range of 74 to 76 °C.

As for `COc1cc2cc3ncc(C#N)c(Nc4ccc(F)c(Cl)c4)c3cc2cc1OCCN1CCOCC1`, the melting point is 205 to 210 °C.

Compound `Cc1ccc(I)c(C(O)(C(F)(F)F)C(F)(F)F)c1` gave a melting point of 38 to 39 °C.

As to `Cc1cc(OC(=O)C(C)(C)C)cc(C)c1O`, the melting point is 92 to 94 °C.

`O=c1cc(C(F)(F)F)[nH]c(=O)n1Cc1cc(Cl)cc(Cl)c1Cl` gave a melting point of 199 to 202 °C.

On to `N#Cc1ccc(OCc2cccnc2)cc1OC(C(=O)O)c1ccccc1` (racemic), for which the melting point lay in the range of 201 to 202 °C.

`COC(=O)CC1OC(=O)c2ccccc21` (centres undefined) yielded a melting point of 62 to 63 °C.

Compound `OCC[C@@H]1CCCC[C@@H]1c1ccccc1` (relative stereo) gave a melting point of 48 to 50 °C.

`O=C(O)Cc1ccsc1Cc1nc2c(F)c(F)cc(F)c2s1` had a melting point of 142 to 144 °C.

Regarding `CC(C)(C)c1cc(Oc2ccc(N)c(O)c2)ccc1Oc1ccc(N)c(O)c1`, the melting point is 110 to 113 °C.

Regarding `CCCNC(=O)C(CCC(=O)NCCCOC(C)=O)NC(=O)C=Cc1ccco1` (centres undefined), the melting point was 154 to 156 °C.

`CCCCc1ccc(CC(Cl)C(=O)O)cc1` (centres undefined) had a melting point of 52.7 to 53.6 °C.

On to `Nc1ccc(Cl)c2c(Cl)ccnc12`, for which the melting point was 135 °C.

With `COc1cc([N+](=O)[O-])cnc1Cl`, the melting point lay in the range of 40 to 41 °C.

With `Cc1nc2ccccc2n2c(-c3cc(OCC(F)c4ccccn4)ccc3Cl)nnc12` (centres undefined), the melting point is 155 to 157 °C.

In the case of `COC(=O)c1ccc2c(c1)Oc1ccc(C(=O)OC)cc1C2(C)C`, the melting point lay in the range of 145 to 147 °C.

`CCc1nc(-c2ccnnc2)no1` gave a melting point of 73 to 74 °C.

In turn, `O=C(NCc1ccc(F)cc1-n1cncn1)c1nc2n(c(=O)c1O)CCN2CCO` yielded a melting point of 220 to 222 °C.

The compound `O=C(O)CCCCCCCCCCCCCCCCCCCO` registered a melting point of 86 °C.

Regarding `CNC(=O)c1c(NC(=O)CBr)c(OC)c(C(=O)NC)c(NC(=O)CBr)c1OC`, the melting point lay within 308 to 310 °C.

Compound `O=Cc1cccc(Sc2ccc(O)cc2)c1O` returned a melting point of 97 to 98 °C.

`Cc1nc(C)c(Cl)c(NCc2nccc(OCCCCN3CCNCC3)c2C)n1` displayed a melting point of 140 to 144 °C.

Compound `C[C@H]1CCCN(C(=O)Cc2ccc(Cl)c(Cl)c2)[C@H]1CO` (relative stereo) had a melting point of 161 to 162 °C.

Regarding `CCCCCCNC(=O)OCc1ccc(CNC(=O)OC2CCN(C(=O)Oc3ccc(Oc4ccccc4)cc3)CC2)cc1`, the melting point was in the range of 116 to 118 °C.

Take `Cc1cccc(N2CCN(c3nnc(Cl)c(C)c3C)CC2)c1C`: the melting point amounted to 194 °C.

Regarding `COC(=O)C1CC(O)CN1C(=O)c1ccc(OC)cc1` (centres undefined), the melting point is 92 °C.

As to `NCCc1nc(Cl)ccc1C(=O)O`, the melting point was 158 to 160 °C.

The compound `CC(=O)N1CCCCNC1=NC(c1ccccc1)c1ccccc1` displayed a melting point of 250 to 252 °C.

Consider `Cn1ccc(S(=O)(=O)NC(C)(C)C)c1`, for which the melting point fell in the range of 134 to 135 °C.

`CNc1nccn2c(Br)cnc12` returned a melting point of 139 °C.

Consider `CCCCCCCc1ccc(OC(=O)c2ccc3c(c2N)C(=O)c2ccc(C)c([N+](=O)[O-])c2C3=O)cc1`, for which the melting point lay in the range of 257 to 259 °C.

`Cn1nnnc1CC(=O)c1ccc(C(F)(F)F)cc1N` yielded a melting point of 200 to 201 °C.

Turning to `CCOC(=O)C(=O)c1cc(OC)c(O)c([N+](=O)[O-])c1`, the melting point lay in the range of 165 to 167 °C.

On to `Cc1ccc(C2=CCN(CCCn3c(=O)[nH]c4cccc(C)c4c3=O)CC2)cc1`, for which the melting point lay in the range of 165 to 170 °C.

Turning to `COCCOc1ccc(I)cc1`, the melting point lay within 36 to 37 °C.

`CNCCCN1CCc2cc(OC)c(OC)cc2CC1=O` came in with a melting point of 68 to 70 °C.

`O=C(O)[C@H](Cc1ccc(C(F)(F)F)cc1)[C@@H](O)c1ccc(Cl)nc1` (racemic) registered a melting point of 145 to 146 °C.

Take `O=C1N[C@H](Cc2ccc(F)cc2)[C@H](c2ccc(C(F)(F)F)cc2)O1` (racemic): the melting point was 160 to 161 °C.

The compound `N#Cc1cccc(CN2C(=O)NC(c3ccccc3)(c3ccccc3)C2=O)c1` registered a melting point of 160 to 164 °C.

In turn, `CCOC(=O)c1cn(-c2nccnn2)cn1` returned a melting point of 193 to 194 °C.

In the case of `O=C(CCc1cccc2c1NC(=O)CO2)CCc1cccc2c1NC(=O)CO2`, the melting point lay within 183 to 185 °C.

The compound `CCOCn1c(Cl)c(Cl)c(C#N)c1-c1ccc(Cl)c(Cl)c1` displayed a melting point of 128 to 130 °C.

For `COc1cc(C=C2C(=O)CCc3cc(Cl)ccc32)c([N+](=O)[O-])cc1OC`, the melting point is 56 to 58 °C.

`O=C(OCc1ccccc1)c1cc(Cl)c(Cl)c(Cl)n1` had a melting point of 125 to 126 °C.

`CCOc1ccc2c(c1)n(C1CCCCC1)c(=O)n2S(=O)(=O)c1ccc(NC(=O)NC(C)(C)C)cc1OC` returned a melting point of 237 °C.

In turn, `O=C(CCC(=O)N(CCO)CCO)c1ccccc1` registered a melting point of 98 °C.
